Assay results: patent US9840500B2, “Compounds as dual inhibitors of histone methyltransferases and DNA methyltransferases” (FUNDACIÓN PARA LA INVESTIGACIÓN MÉDICA APLICADA, priority 2014, dated 2017)
Read-outs that look alike come from different tables or passages of the source.

Tests used:
OCI-Ly10 = assay: Cell proliferation assay, OCI-Ly10 (ABC-DLBCL); type: cell-based; settings: Homo sapiens, 48 hours of treatment, Table 3
Protocol: (§1) Cell proliferation was analyzed after 48 hours of in vitro treatment using the CellTiter 96 Aqueous One Solution Cell Proliferation Assay (Promega, Madison, Wis.). This is a colorimetric method for determining the number of viable cells in proliferation.
(§2) For the assay, suspension cells were cultured by triplicate at a density of 1×10^6 cells/ml in 96-well plates (100.000 cells/well, 100 μl/well), except for OCILY-3 and OCILY-10 cell lines which were cultured at a density of 0.5×10^6 cells/ml (50.000 cells/well, 100 μl/well) and for HepG2, Hep3B and PLC/PRF/5 cell ines which were cultured at a density of 3000 cells/well, 100 μl/well). Adherent cells were obtained from 80-90% confluent flasks and 100 μl of cells were seeded at a density of 5000 cells/well in 96-well plates by triplicate. Before addition of the compounds, adherent cells were allowed to attach to the bottom of the wells for 12 hours. In all cases, only the 60 inner wells were used to avoid any border effects.
(§3) After 48 hours of treatment, plates with suspension cells were centrifuged at 800 g for 10 minutes and medium was removed. The plates with adherent cells were flicked to remove medium. Then, cells were incubated with 100 ul/well of medium and 20 ul/well of CellTiter 96 Aqueous One Solution reagent. After 1-3 hours of incubation at 37° C., absorbance was measured at 490 nm in a 96-well plate reader. The background absorbance was measured in wells with only cell line medium and solution reagent. Data was calculated as a percentage of total absorbance of treated cell/absorbance of non treated cells.

human G9a enzyme = molecular target: T1, human G9a enzyme (Homo sapiens, UniProt Q96KQ7); assay: G9a enzyme activity assay (TR-FRET); type: biochemical
T1 sequence (Q96KQ7 1-1210): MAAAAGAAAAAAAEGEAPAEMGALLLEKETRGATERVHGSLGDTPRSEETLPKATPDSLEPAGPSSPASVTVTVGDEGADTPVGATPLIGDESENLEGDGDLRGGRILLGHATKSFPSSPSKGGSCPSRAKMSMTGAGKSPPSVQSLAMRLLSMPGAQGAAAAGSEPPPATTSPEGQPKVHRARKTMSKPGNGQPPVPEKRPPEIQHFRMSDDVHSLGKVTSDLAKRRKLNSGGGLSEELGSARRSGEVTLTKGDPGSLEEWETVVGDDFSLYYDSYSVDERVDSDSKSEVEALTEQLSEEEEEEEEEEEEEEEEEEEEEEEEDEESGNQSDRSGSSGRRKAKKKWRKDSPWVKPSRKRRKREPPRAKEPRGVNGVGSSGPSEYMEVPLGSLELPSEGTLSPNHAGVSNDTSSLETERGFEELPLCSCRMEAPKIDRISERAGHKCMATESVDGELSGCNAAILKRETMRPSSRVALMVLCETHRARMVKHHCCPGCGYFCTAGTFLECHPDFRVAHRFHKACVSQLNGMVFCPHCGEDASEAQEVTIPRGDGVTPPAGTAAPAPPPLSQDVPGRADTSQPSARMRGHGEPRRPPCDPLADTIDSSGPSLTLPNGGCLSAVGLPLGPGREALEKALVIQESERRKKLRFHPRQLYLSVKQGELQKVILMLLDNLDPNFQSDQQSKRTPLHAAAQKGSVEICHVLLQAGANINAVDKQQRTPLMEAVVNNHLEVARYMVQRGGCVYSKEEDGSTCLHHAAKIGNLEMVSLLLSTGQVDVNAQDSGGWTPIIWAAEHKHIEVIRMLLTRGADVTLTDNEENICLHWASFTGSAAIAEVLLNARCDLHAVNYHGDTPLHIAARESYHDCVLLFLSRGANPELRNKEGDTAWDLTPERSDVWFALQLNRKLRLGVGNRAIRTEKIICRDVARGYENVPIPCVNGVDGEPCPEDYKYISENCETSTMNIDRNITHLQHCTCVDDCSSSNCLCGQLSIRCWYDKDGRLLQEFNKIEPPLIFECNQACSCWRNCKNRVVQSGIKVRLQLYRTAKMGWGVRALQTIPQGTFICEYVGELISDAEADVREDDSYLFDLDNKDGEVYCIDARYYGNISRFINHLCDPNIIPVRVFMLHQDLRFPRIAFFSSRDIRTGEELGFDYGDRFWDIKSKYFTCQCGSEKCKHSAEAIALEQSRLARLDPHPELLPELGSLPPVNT
Method in brief: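 Sf9-expressed human G9a (added as 1 nM solution), 0.5% DMSO final, with streptavidin-XL665 at 16 μM final and europium cryptate donor. After 1 h at room temperature, the 665/620 nm ratio was read against vehicle and no-enzyme controls. IC50 from a 4-parameter inhibition fit.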

LAL-CUN-2 = assay: Cell proliferation assay, LAL-CUN-2 (ALL); type: cell-based
Protocol: as §1, §2, §3

OCI-Ly3 = assay: Cell proliferation assay, OCI-Ly3 (ABC-DLBCL); type: cell-based; settings: Homo sapiens, 48 hours of treatment, Table 3
Protocol: as §1, §2, §3

DNMT1 [1] = molecular target: T2, DNMT1 (Homo sapiens, UniProt P26358); assay: DNMT1 enzyme activity assay (TR-FRET, EPIgeneous methyltransferase assay); type: biochemical
Method in brief: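 Human DNMT1, added at 1 nM, with 0.5% final DMSO; activity read by TR-FRET detection of the product SAH, where signal falls as SAH rises. The value is the 665/620 nm ratio, and IC50 comes from a 4-parameter inhibition fit.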
Target sequence in this assay (P26358 whole entry): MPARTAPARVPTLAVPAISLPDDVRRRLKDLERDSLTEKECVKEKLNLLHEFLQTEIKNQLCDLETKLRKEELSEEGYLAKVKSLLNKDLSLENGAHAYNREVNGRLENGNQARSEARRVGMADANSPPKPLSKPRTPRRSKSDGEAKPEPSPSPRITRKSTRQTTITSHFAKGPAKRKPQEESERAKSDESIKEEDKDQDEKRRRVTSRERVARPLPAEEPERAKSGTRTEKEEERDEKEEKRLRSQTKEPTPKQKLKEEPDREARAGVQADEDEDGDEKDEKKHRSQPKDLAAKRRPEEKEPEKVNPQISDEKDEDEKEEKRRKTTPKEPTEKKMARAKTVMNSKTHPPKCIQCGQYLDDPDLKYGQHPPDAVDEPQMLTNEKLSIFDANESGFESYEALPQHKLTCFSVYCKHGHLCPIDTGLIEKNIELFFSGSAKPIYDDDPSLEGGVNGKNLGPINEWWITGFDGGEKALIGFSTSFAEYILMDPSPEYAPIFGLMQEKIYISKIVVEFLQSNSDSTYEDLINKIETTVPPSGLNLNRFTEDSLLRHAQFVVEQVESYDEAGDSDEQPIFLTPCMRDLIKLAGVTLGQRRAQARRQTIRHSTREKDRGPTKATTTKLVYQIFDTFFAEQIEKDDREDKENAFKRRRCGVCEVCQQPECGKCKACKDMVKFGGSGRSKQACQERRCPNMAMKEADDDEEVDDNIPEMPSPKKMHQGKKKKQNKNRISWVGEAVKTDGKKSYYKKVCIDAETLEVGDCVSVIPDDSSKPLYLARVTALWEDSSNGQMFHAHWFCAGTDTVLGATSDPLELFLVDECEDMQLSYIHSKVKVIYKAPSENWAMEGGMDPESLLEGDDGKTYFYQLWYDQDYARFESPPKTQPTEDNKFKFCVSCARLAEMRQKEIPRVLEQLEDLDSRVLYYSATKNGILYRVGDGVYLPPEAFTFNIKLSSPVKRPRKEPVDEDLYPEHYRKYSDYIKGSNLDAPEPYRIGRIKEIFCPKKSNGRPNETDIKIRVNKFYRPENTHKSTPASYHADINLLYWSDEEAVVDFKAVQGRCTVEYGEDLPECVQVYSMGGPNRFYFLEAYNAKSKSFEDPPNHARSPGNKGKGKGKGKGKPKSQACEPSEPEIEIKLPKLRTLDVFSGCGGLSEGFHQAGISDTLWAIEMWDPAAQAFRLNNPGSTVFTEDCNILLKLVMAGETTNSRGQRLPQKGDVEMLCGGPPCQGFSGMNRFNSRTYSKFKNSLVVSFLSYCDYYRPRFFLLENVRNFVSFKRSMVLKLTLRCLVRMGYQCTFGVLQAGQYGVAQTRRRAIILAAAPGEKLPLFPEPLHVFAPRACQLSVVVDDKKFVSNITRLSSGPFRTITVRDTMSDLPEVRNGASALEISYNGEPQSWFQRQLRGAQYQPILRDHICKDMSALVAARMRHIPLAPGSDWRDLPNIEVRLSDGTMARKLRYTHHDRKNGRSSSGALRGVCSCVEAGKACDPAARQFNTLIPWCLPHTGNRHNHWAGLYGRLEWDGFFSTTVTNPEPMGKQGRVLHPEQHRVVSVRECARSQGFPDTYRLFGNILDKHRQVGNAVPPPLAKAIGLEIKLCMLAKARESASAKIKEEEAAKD

CEMO-1 = assay: Cell proliferation assay, CEMO-1 (ALL); type: cell-based, human
Protocol: as §1, §2, §3

PLC/PRF/5 = assay: Cell proliferation assay, PLC/PRF/5 (HCC); type: cell-based; settings: Homo sapiens, 48 hours of treatment, Table 3
Protocol: as §1, §2, §3

Hep3B = assay: Cell proliferation assay, Hep3B (HCC); type: cell-based; settings: Homo sapiens, 48 hours of treatment, Table 3
Protocol: as §1, §2, §3

HepG2 = assay: Cell proliferation assay, HepG2 (HCC); type: cell-based; settings: Homo sapiens, 48 hours of treatment, Table 3
Protocol: as §1, §2, §3

JJN3 = assay: Cell proliferation assay, JJN3 (MM); type: cell-based
Protocol: as §1, §2, §3

MV411 = assay: Cell proliferation assay, MV411 / MV4-11 (AML); type: cell-based
Protocol: as §1, §2, §3
(§4) Compounds 3-04 and 3-07 were tested against different solid tumour and oncohematological cell lines using the cell proliferation protocol described above.

OCI-AML-2 = assay: Cell proliferation assay, OCI-AML-2 (AML); type: cell-based
Protocol: as §1, §2, §3, §4

U266 = assay: Cell proliferation assay, U266 (MM); type: cell-based
Protocol: as §1, §2, §3

DNMT1 [2] = molecular target: T2, DNMT1; settings: reported in the literature (Vedadi 2011; Liu 2013); read-out: IC50 against DNMT1; cited from earlier work
Target sequence in this assay (P26358 whole entry, species assumed): as the sequence (P26358 whole entry) above

[3] = Homo sapiens, 48 hours of treatment, Table 3
[4] = Homo sapiens, JJN-3, Table 5 comparison
[5] = Homo sapiens, MV4-11, Table 5 comparison
[6] = Homo sapiens, OCI-AML2, Table 5 comparison
[7] = Homo sapiens, ALL, Table 5 comparison
[8] = Homo sapiens, U-266, Table 5 comparison

Row | SMILES | GI50 (OCI-Ly10) [nM] | IC50 (human G9a enzyme) [nM] | GI50 (LAL-CUN-2; 48 hours of treatment, Table 3) [nM] | GI50 (OCI-Ly3) [nM] | IC50 (DNMT1 [1]) [nM] | GI50 (CEMO-1; [3]) [nM] | GI50 (PLC/PRF/5) [nM] | GI50 (Hep3B) [nM] | GI50 (HepG2) [nM] | further results
1 | COc1cc2c(NC3CCN(C)CC3)cc(-c3ccc(C)[nH]3)nc2cc1OCCCN1CCCC1 [Compound 3-31] | 100 to 1000 | < 100 | ≤ 10000 | 100 to 1000 | 100 to 500 | 1000 to 10000 | – | – | – | –
2 | COc1cc2c(NC3CCN(C4CC4)CC3)cc(-c3ccc(C)o3)nc2cc1OCCCN1CCCC1 [Compound 3-20] | 100 to 1000 | < 100 | 1000 to 10000 | 100 to 1000 | 100 to 500 | 100 to 1000 | 100 to 1000 | 100 to 1000 | 100 to 1000 | –
3 | COc1cc2c(NC3CCN(C)CC3)cc(-c3ccco3)nc2cc1OCCCN1CCCC1 [Compound 3-40] | < 100 | < 100 | 100 to 1000 | < 100 | 100 to 500 | < 100 | – | – | – | –
4 | COc1cc2c(NC3CCN(C(C)C)CC3)nc(C3CCCCC3)nc2cc1OCCCN1CCCC1 [UNC0638, 2-cyclohexyl-N-(1-isopropyl-4-piperidyl)-6-methoxy-7-(3-pyrrolidin-1-ylpropoxy)quinazolin-4-amine, reference compound] | – | – | – | – | – | – | – | – | – | GI50 (JJN3; [4]): ≥ 10000 nM; GI50 (MV411; [5]): ≥ 10000 nM; GI50 (LAL-CUN-2; ALL, Table 5 comparison): 1000 to 10000 nM; GI50 (OCI-AML-2; [6]): 1000 to 10000 nM; GI50 (CEMO-1; [7]): 1000 to 10000 nM; GI50 (U266; [8]): ≥ 10000 nM
5 | Nc1ncn([C@H]2C[C@H](O)[C@@H](CO)O2)c(=O)n1 [Decitabine, reference compound] | – | – | – | – | – | – | – | – | – | GI50 (JJN3; Table 5 comparison): ≥ 10000 nM; GI50 (MV411; Table 5 comparison): ≥ 10000 nM; GI50 (LAL-CUN-2; ALL, Table 5 comparison): ≥ 10000 nM; GI50 (OCI-AML-2; Table 5 comparison): ≥ 10000 nM; GI50 (CEMO-1; ALL, Table 5 comparison): 100 to 1000 nM; GI50 (U266; Table 5 comparison): ≥ 10000 nM
6 | COc1cc2c(NC3CCN(C)CC3)cc(-c3ccccc3)nc2cc1OCCCN1CCCC1 [Compound 3-29] | 100 to 1000 | < 100 | – | 100 to 1000 | 1000 to 10000 | 100 to 1000 | 1000 to 10000 | 1000 to 10000 | 1000 to 10000 | –
7 | CCc1ccc(-c2cc(NC3CC4(CCN(C)CC4)C3)c3cc(OC)c(OCCCN4CCCC4)cc3n2)o1 [Compound 5-06, 2-(5-ethyl-2-furyl)-6-methoxy-N-(7-methyl-7-azaspiro[3.5]nonan-2-yl)-7-(3-pyrrolidin-1-ylpropoxy)quinolin-4-amine; 2,2,2-trifluoroacetic acid] | 100 to 1000 | < 100 | – | 100 to 1000 | 100 to 500 | 100 to 1000 | 100 to 1000 | 100 to 1000 | 100 to 1000 | –
8 | COc1cc2c(NC3CCN(C)CC3)cc(-c3ccoc3)nc2cc1OCCCN1CCCC1 [Compound 3-27] | 100 to 1000 | < 100 | ≤ 10000 | ≤ 10000 | 1000 to 10000 | 1000 to 10000 | – | – | – | –
9 | CCc1ccc(-c2cc(NC3C4CCC3CN(C)C4)c3cc(OC)c(OCCCN4CCCC4)cc3n2)o1 (stereo not drawn) [Compound 3-51] | 100 to 1000 | < 100 | – | 1000 to 10000 | 100 to 500 | 100 to 1000 | 100 to 1000 | 100 to 1000 | 100 to 1000 | –
10 | COc1cc2c(NC3CCNCC3)cc(-c3ccc(C)o3)nc2cc1OCCCN1CCCC1 [Compound 3-08] | ≤ 10000 | < 100 | 1000 to 10000 | 1000 to 10000 | 100 to 500 | 1000 to 10000 | – | – | – | –
11 | CCc1ccc(-c2cc(NC3CCN(C4CC4)CC3)c3cc(OC)c(OCCCN4CCCC4)cc3n2)o1 [Compound 3-48] | 100 to 1000 | < 100 | – | 1000 to 10000 | 100 to 500 | 100 to 1000 | ≤ 10000 | 1000 to 10000 | 1000 to 10000 | –
12 | Nc1ncn([C@@H]2O[C@H](CO)[C@@H](O)[C@H]2O)c(=O)n1 [5-azacytidine, reference compound] | – | – | – | – | – | – | – | – | – | GI50 (JJN3; [4]): ≥ 10000 nM; GI50 (MV411; [5]): 1000 to 10000 nM; GI50 (LAL-CUN-2; ALL, Table 5 comparison): ≥ 10000 nM; GI50 (OCI-AML-2; [6]): ≥ 10000 nM; GI50 (CEMO-1; [7]): 1000 to 10000 nM; GI50 (U266; [8]): 1000 to 10000 nM
13 | COc1cc2c(NC3CCN(C(C)C)CC3)nc(N3CCC(F)(F)CC3)nc2cc1OCCCN1CCCC1 [UNC0642, 2-(4,4-difluoro-1-piperidyl)-N-(1-isopropyl-4-piperidyl)-6-methoxy-7-(3-pyrrolidin-1-ylpropoxy)quinazolin-4-amine] | – | – | – | – | – | – | – | – | – | IC50 (DNMT1 [2]): > 50000 nM
